Like-named read-outs stand apart in the source and are kept apart here.
What was measured:
[1] = tested on: mixed bacteria on fresh hide samples; set-up: Growth/Days 2 / Growth/Days 4: key to the marks not given beside the values; conditions: for Growth/Days 1: day 1; for Growth/Days 2: day 2; for Growth/Days 4: day 4;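 for all read-outs here: fresh hide pieces laid on inhibitor-containing nutrient agar supplemented with 0.5% Azocoll, incubated at 30 °C, then scored for growth of bacteria originating from the hide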
[2] = tested on: collagenase; conditions: for Collagenase Activity/Days 1: day 1; for Collagenase Activity/Days 2: day 2; for Collagenase Activity/Days 4: day 4; for Collagenase Activity/Days 7: day 7;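 for all read-outs here: nutrient agar containing 0.5% Azocoll with inhibitor, topped by a fresh hide piece, kept at 30 °C, collagenase from hide bacteria scored visually as clearing zone around growth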
Description: Nutrient agar amended with 0.5% AZOCOLL was used as the test medium to study collagenase activity. The nutrient agar was prepared and autoclaved and then was cooled to 55° C. Azocol was added to give a final concentration of 0.5%. […] Fresh hides were obtained from a tannery and were cut into pieces of approximately 2 cm square. One 2×2 cm hide sample was placed on top of the agar containing the inhibitors. Treated samples were incubated at 30° C. and evaluated after 24 hours, 2 days, 3 or 4 days and 7 days for collagenase activity and also for the growth of the bacteria. The bacteria from the hides secreted collagenase into the medium as they grew to degrade the collagen in the azocoll medium and collagenase activity was determined by visual inspection of the clear zone around the bacteria

O=C([O-])CN(CCN(CC(=O)O)CC(=O)O)CC(=O)[O-].[Na+].[Na+] [Na2EDTA, ethylenediaminetetraacetic acid disodium salt]
+++: Growth/Days 2 ([1]; Conc. 0.2%) | Growth/Days 2 ([1]; Conc. 0.3%) | Growth/Days 2 ([1]; Conc. 0.4%) | Growth/Days 2 ([1]; Conc. 0.5%) | Collagenase Activity/Days 2 ([2]; Conc. 0.05%) | Collagenase Activity/Days 2 ([2]; Conc. 0.075%) | Collagenase Activity/Days 4 ([2]; Conc. 0.1%) | Collagenase Activity/Days 7 ([2]; Conc. 0.1%)
0: Growth/Days 1 ([1]; Conc. 0.2%) | Growth/Days 1 ([1]; Conc. 0.3%) | Growth/Days 1 ([1]; Conc. 0.4%) | Growth/Days 1 ([1]; Conc. 0.5%) | Collagenase Activity/Days 1 ([2]; Conc. 0.05%) | Collagenase Activity/Days 1 ([2]; Conc. 0.1%) | Collagenase Activity/Days 1 ([2]; Conc. 0.2%) | Collagenase Activity/Days 2 ([2]; Conc. 0.2%) | Collagenase Activity/Days 4 ([2]; Conc. 0.2%) | Collagenase Activity/Days 1 ([2]; Conc. 0.3%) | Collagenase Activity/Days 2 ([2]; Conc. 0.3%) | Collagenase Activity/Days 4 ([2]; Conc. 0.3%) | Collagenase Activity/Days 1 ([2]; Conc. 0.4%) | Collagenase Activity/Days 2 ([2]; Conc. 0.4%) | Collagenase Activity/Days 4 ([2]; Conc. 0.4%) | Collagenase Activity/Days 7 ([2]; Conc. 0.4%) | Collagenase Activity/Days 1 ([2]; Conc. 0.5%) | Collagenase Activity/Days 2 ([2]; Conc. 0.5%) | Collagenase Activity/Days 4 ([2]; Conc. 0.5%) | Collagenase Activity/Days 7 ([2]; Conc. 0.5%)
++++: Growth/Days 1 ([1]; Conc. 0.025%) | Growth/Days 2 ([1]; Conc. 0.025%) | Growth/Days 4 ([1]; Conc. 0.025%) | Growth/Days 1 ([1]; Conc. 0.05%) | Growth/Days 2 ([1]; Conc. 0.05%) | Growth/Days 4 ([1]; Conc. 0.05%) | Growth/Days 1 ([1]; Conc. 0.075%) | Growth/Days 2 ([1]; Conc. 0.075%) | Growth/Days 4 ([1]; Conc. 0.075%) | Growth/Days 2 ([1]; Conc. 0.1%) | Growth/Days 4 ([1]; Conc. 0.1%) | Growth/Days 4 ([1]; Conc. 0.2%) | Growth/Days 4 ([1]; Conc. 0.3%) | Growth/Days 4 ([1]; Conc. 0.4%) | Growth/Days 4 ([1]; Conc. 0.5%) | Collagenase Activity/Days 1 ([2]; Conc. 0.025%) | Collagenase Activity/Days 2 ([2]; Conc. 0.025%) | Collagenase Activity/Days 4 ([2]; Conc. 0.025%) | Collagenase Activity/Days 7 ([2]; Conc. 0.025%) | Collagenase Activity/Days 4 ([2]; Conc. 0.05%) | Collagenase Activity/Days 7 ([2]; Conc. 0.05%) | Collagenase Activity/Days 4 ([2]; Conc. 0.075%) | Collagenase Activity/Days 7 ([2]; Conc. 0.075%)
+: Collagenase Activity/Days 1 ([2]; Conc. 0.075%) | Collagenase Activity/Days 2 ([2]; Conc. 0.1%) | Collagenase Activity/Days 7 ([2]; Conc. 0.2%) | Collagenase Activity/Days 7 ([2]; Conc. 0.3%)
++: Growth/Days 1 ([1]; Conc. 0.1%)

O=C([O-])CN(CCN(CC(=O)[O-])CC(=O)O)CC(=O)[O-].[Na+].[Na+].[Na+] [Na3EDTA, ethylenediaminetetraacetic acid trisodium salt]
+++: Growth/Days 1 ([1]; Conc. 0.3%) | Growth/Days 2 ([1]; Conc. 0.3%) | Growth/Days 4 ([1]; Conc. 0.3%) | Collagenase Activity/Days 2 ([2]; Conc. 0.05%) | Collagenase Activity/Days 4 ([2]; Conc. 0.075%) | Collagenase Activity/Days 4 ([2]; Conc. 0.1%) | Collagenase Activity/Days 7 ([2]; Conc. 0.1%) | Collagenase Activity/Days 7 ([2]; Conc. 0.2%)
++++: Growth/Days 1 ([1]; Conc. 0.025%) | Growth/Days 2 ([1]; Conc. 0.025%) | Growth/Days 4 ([1]; Conc. 0.025%) | Growth/Days 1 ([1]; Conc. 0.05%) | Growth/Days 2 ([1]; Conc. 0.05%) | Growth/Days 4 ([1]; Conc. 0.05%) | Growth/Days 1 ([1]; Conc. 0.075%) | Growth/Days 2 ([1]; Conc. 0.075%) | Growth/Days 4 ([1]; Conc. 0.075%) | Growth/Days 1 ([1]; Conc. 0.1%) | Growth/Days 2 ([1]; Conc. 0.1%) | Growth/Days 4 ([1]; Conc. 0.1%) | Growth/Days 1 ([1]; Conc. 0.2%) | Growth/Days 2 ([1]; Conc. 0.2%) | Growth/Days 4 ([1]; Conc. 0.2%) | Growth/Days 1 ([1]; Conc. 0.4%) | Growth/Days 2 ([1]; Conc. 0.4%) | Growth/Days 4 ([1]; Conc. 0.4%) | Growth/Days 2 ([1]; Conc. 0.5%) | Growth/Days 4 ([1]; Conc. 0.5%) | Collagenase Activity/Days 1 ([2]; Conc. 0.025%) | Collagenase Activity/Days 2 ([2]; Conc. 0.025%) | Collagenase Activity/Days 4 ([2]; Conc. 0.025%) | Collagenase Activity/Days 7 ([2]; Conc. 0.025%) | Collagenase Activity/Days 4 ([2]; Conc. 0.05%) | Collagenase Activity/Days 7 ([2]; Conc. 0.05%) | Collagenase Activity/Days 7 ([2]; Conc. 0.075%)
++: Growth/Days 1 ([1]; Conc. 0.5%) | Collagenase Activity/Days 1 ([2]; Conc. 0.05%) | Collagenase Activity/Days 4 ([2]; Conc. 0.2%) | Collagenase Activity/Days 7 ([2]; Conc. 0.3%)
0: Collagenase Activity/Days 1 ([2]; Conc. 0.075%) | Collagenase Activity/Days 1 ([2]; Conc. 0.1%) | Collagenase Activity/Days 1 ([2]; Conc. 0.2%) | Collagenase Activity/Days 2 ([2]; Conc. 0.2%) | Collagenase Activity/Days 1 ([2]; Conc. 0.3%) | Collagenase Activity/Days 2 ([2]; Conc. 0.3%) | Collagenase Activity/Days 1 ([2]; Conc. 0.4%) | Collagenase Activity/Days 2 ([2]; Conc. 0.4%) | Collagenase Activity/Days 4 ([2]; Conc. 0.4%) | Collagenase Activity/Days 1 ([2]; Conc. 0.5%) | Collagenase Activity/Days 2 ([2]; Conc. 0.5%) | Collagenase Activity/Days 4 ([2]; Conc. 0.5%)
+: Collagenase Activity/Days 2 ([2]; Conc. 0.075%) | Collagenase Activity/Days 2 ([2]; Conc. 0.1%) | Collagenase Activity/Days 4 ([2]; Conc. 0.3%) | Collagenase Activity/Days 7 ([2]; Conc. 0.4%) | Collagenase Activity/Days 7 ([2]; Conc. 0.5%)

O=C([O-])CN(CCN(CC(=O)[O-])CC(=O)[O-])CC(=O)[O-].[Na+].[Na+].[Na+].[Na+] [Na4EDTA, ethylenediaminetetraacetic acid tetrasodium salt]
+++: Collagenase Activity/Days 4 ([2]; Conc. 0.075%) | Collagenase Activity/Days 7 ([2]; Conc. 0.1%) | Collagenase Activity/Days 7 ([2]; Conc. 0.2%) | Collagenase Activity/Days 7 ([2]; Conc. 0.3%) | Collagenase Activity/Days 7 ([2]; Conc. 0.4%)
++: Collagenase Activity/Days 2 ([2]; Conc. 0.075%) | Collagenase Activity/Days 4 ([2]; Conc. 0.1%) | Collagenase Activity/Days 4 ([2]; Conc. 0.2%) | Collagenase Activity/Days 7 ([2]; Conc. 0.5%)
+: Collagenase Activity/Days 1 ([2]; Conc. 0.075%) | Collagenase Activity/Days 2 ([2]; Conc. 0.1%) | Collagenase Activity/Days 2 ([2]; Conc. 0.2%) | Collagenase Activity/Days 2 ([2]; Conc. 0.3%) | Collagenase Activity/Days 4 ([2]; Conc. 0.3%) | Collagenase Activity/Days 2 ([2]; Conc. 0.4%) | Collagenase Activity/Days 4 ([2]; Conc. 0.4%)
0: Collagenase Activity/Days 1 ([2]; Conc. 0.1%) | Collagenase Activity/Days 1 ([2]; Conc. 0.2%) | Collagenase Activity/Days 1 ([2]; Conc. 0.3%) | Collagenase Activity/Days 1 ([2]; Conc. 0.4%) | Collagenase Activity/Days 1 ([2]; Conc. 0.5%) | Collagenase Activity/Days 2 ([2]; Conc. 0.5%)
++++: Growth/Days 1 ([1]; Conc. 0.025%) | Growth/Days 2 ([1]; Conc. 0.025%) | Growth/Days 4 ([1]; Conc. 0.025%) | Growth/Days 1 ([1]; Conc. 0.05%) | Growth/Days 2 ([1]; Conc. 0.05%) | Growth/Days 4 ([1]; Conc. 0.05%) | Growth/Days 1 ([1]; Conc. 0.075%) | Growth/Days 2 ([1]; Conc. 0.075%) | Growth/Days 4 ([1]; Conc. 0.075%) | Growth/Days 1 ([1]; Conc. 0.1%) | Growth/Days 2 ([1]; Conc. 0.1%) | Growth/Days 4 ([1]; Conc. 0.1%) | Growth/Days 1 ([1]; Conc. 0.2%) | Growth/Days 2 ([1]; Conc. 0.2%) | Growth/Days 4 ([1]; Conc. 0.2%) | Growth/Days 1 ([1]; Conc. 0.3%) | Growth/Days 2 ([1]; Conc. 0.3%) | Growth/Days 4 ([1]; Conc. 0.3%) | Growth/Days 1 ([1]; Conc. 0.4%) | Growth/Days 2 ([1]; Conc. 0.4%) | Growth/Days 4 ([1]; Conc. 0.4%) | Growth/Days 1 ([1]; Conc. 0.5%) | Growth/Days 2 ([1]; Conc. 0.5%) | Growth/Days 4 ([1]; Conc. 0.5%) | Collagenase Activity/Days 1 ([2]; Conc. 0.025%) | Collagenase Activity/Days 2 ([2]; Conc. 0.025%) | Collagenase Activity/Days 4 ([2]; Conc. 0.025%) | Collagenase Activity/Days 7 ([2]; Conc. 0.025%) | Collagenase Activity/Days 1 ([2]; Conc. 0.05%) | Collagenase Activity/Days 2 ([2]; Conc. 0.05%) | Collagenase Activity/Days 4 ([2]; Conc. 0.05%) | Collagenase Activity/Days 7 ([2]; Conc. 0.05%) | Collagenase Activity/Days 7 ([2]; Conc. 0.075%)

Reference: patent publication US20060112494A1, “Method of protecting an animal skin product from metalloproteinase activity” (priority 2004, published 2006)
